Assay results from ChEMBL document CHEMBL4011591, “Discovery and pharmacological evaluation of a novel series of adamantyl cyanoguanidines as P2X7 receptor antagonists” (Eur J Med Chem, 2017).
Each block holds one compound with its values, some of them ahead of it. Activity calls are given as the source filed them. The rule behind the calls is not given here.

What was measured:
[1] = Half life in CD-1 mouse at 3 mg/kg, po administered as single dose via gavage by HPLC-MS/MS; format: ADME, organism-based; conditions: in vivo
P2X purinoceptor 7 [2] = molecular target: T1, P2X purinoceptor 7 (Homo sapiens, UniProt Q99572); test: Antagonist activity at P2X7 receptor in human THP1 cells assessed as inhibition of BzATP-induced YO-PRO-1 Iodide uptake measured every 30 secs for 1 hr by fluorescence assay; format: cell-based
T1 sequence (Q99572 whole entry): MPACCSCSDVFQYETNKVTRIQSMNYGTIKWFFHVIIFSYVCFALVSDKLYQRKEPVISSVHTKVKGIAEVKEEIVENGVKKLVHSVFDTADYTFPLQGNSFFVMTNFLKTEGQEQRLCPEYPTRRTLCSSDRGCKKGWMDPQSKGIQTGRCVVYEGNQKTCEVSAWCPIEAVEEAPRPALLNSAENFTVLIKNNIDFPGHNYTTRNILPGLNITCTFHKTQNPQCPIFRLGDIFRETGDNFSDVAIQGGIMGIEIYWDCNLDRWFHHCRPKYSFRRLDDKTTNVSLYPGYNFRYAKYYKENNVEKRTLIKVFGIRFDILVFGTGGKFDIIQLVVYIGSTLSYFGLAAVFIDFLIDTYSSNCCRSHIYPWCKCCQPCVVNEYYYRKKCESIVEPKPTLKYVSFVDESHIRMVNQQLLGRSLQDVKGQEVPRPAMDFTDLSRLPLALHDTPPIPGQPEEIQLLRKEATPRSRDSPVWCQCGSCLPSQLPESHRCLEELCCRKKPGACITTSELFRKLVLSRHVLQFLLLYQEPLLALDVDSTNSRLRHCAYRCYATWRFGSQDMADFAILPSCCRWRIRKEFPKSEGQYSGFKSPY

P2X purinoceptor 7 [3] = molecular target: T1, P2X purinoceptor 7; test: Antagonist activity at P2X7 receptor in LPS-stimulated human THP1 cells assessed as inhibition of LPS/BzATP-induced IL-1beta release preincubated for 30 mins followed by BzATP addition measured after 30 mins by ELISA
[4] = molecular target: T2, P2X purinoceptor 7 (Homo sapiens) (UniProt Q99572); test: Ratio of IC50 for P2X7 receptor in human THP1 cells assessed as inhibition of BzATP-induced YO-PRO-1 Iodide uptake to IC50 for P2X7 receptor in LPS-stimulated human THP1 cells assessed as inhibition of LPS/BzATP-induced IL-1beta release; format: cell-based
T2 sequence (whole entry): T1 sequence (Q99572 whole entry)

Mus musculus [5] = test: Toxicity in Balb-C mouse assessed as behavior changes at 0.1 to 1 mg/kg, ip measured after 48 hrs; format: organism-based; conditions: in vivo
Mus musculus [6] = test: Anti-depressant like activity in wild-type Balb-C mouse assessed as reduction in duration of immobility at 1 mg/kg, ip administered 15 to 30 mins prior to the testing measured on day 3 post dose by force swim test; format: functional, organism-based
[7] = Plasma concentration in Balb-C mouse at 2 mg/kg, iv administered as bolus dose measured after 5.8 mins by LC-MS analysis; format: ADME, organism-based
[8] = Plasma concentration in Balb-C mouse at 2 mg/kg, iv administered as bolus dose measured after 6 mins by LC-MS analysis; format: ADME, organism-based
[9] = Plasma concentration in Balb-C mouse at 2 mg/kg, iv administered as bolus dose measured after 2.5 mins by LC-MS analysis; format: ADME, organism-based
[10] = Plasma concentration in Balb-C mouse at 2 mg/kg, iv administered as bolus dose measured after 2.2 mins by LC-MS analysis; format: ADME, organism-based
[11] = Plasma concentration in Balb-C mouse at 2 mg/kg, iv administered as bolus dose measured after 10 mins by LC-MS analysis; format: ADME, organism-based
[12] = Plasma concentration in Balb-C mouse at 2 mg/kg, iv administered as bolus dose measured after 10.1 mins by LC-MS analysis; format: ADME, organism-based
[13] = Plasma concentration in Balb-C mouse at 2 mg/kg, iv administered as bolus dose measured after 15 mins by LC-MS analysis; format: ADME, organism-based
[14] = Plasma concentration in Balb-C mouse at 2 mg/kg, iv administered as bolus dose measured after 23 mins by LC-MS analysis; format: ADME, organism-based
[15] = Plasma concentration in Balb-C mouse at 2 mg/kg, iv administered as bolus dose measured after 37 mins by LC-MS analysis; format: ADME, organism-based
[16] = Plasma concentration in Balb-C mouse at 2 mg/kg, iv administered as bolus dose measured after 39 mins by LC-MS analysis; format: ADME, organism-based
[17] = Plasma concentration in Balb-C mouse at 2 mg/kg, iv administered as bolus dose measured after 58 mins by LC-MS analysis; format: ADME, organism-based
[18] = Plasma concentration in Balb-C mouse at 2 mg/kg, iv administered as bolus dose measured after 63 mins by LC-MS analysis; format: ADME, organism-based
[19] = Plasma concentration in Balb-C mouse at 2 mg/kg, iv administered as bolus dose measured after 76 mins by LC-MS analysis; format: ADME, organism-based
[20] = Plasma concentration in Balb-C mouse at 10 mg/kg, po measured after 21 mins by LC-MS analysis; format: ADME, organism-based
[21] = Plasma concentration in Balb-C mouse at 10 mg/kg, po measured after 30 mins by LC-MS analysis; format: ADME, organism-based
[22] = Plasma concentration in Balb-C mouse at 10 mg/kg, po measured after 33 mins by LC-MS analysis; format: ADME, organism-based
[23] = Plasma concentration in Balb-C mouse at 10 mg/kg, po measured after 62 mins by LC-MS analysis; format: ADME, organism-based
[24] = Cmax in Balb-C mouse at 2 mg/kg, iv administered as bolus dose by LC-MS method; format: ADME, organism-based; design: dose 2 mg/kg, route intravenous; conditions: in vivo
[25] = Tmax in Balb-C mouse at 2 mg/kg, iv administered as bolus dose by LC-MS method; format: ADME, organism-based; conditions: in vivo
[26] = Half life in Balb-C mouse at 2 mg/kg, iv administered as bolus dose by LC-MS method; format: ADME, organism-based; conditions: in vivo
[27] = AUC (0 to infinity) in Balb-C mouse at 2 mg/kg, iv administered as bolus dose by LC-MS method; format: ADME, organism-based; design: dose 2 mg/kg, time infinity, route intravenous; conditions: in vivo
[28] = MRT (0 to infinity) in Balb-C mouse at 2 mg/kg, iv administered as bolus dose by LC-MS method; format: ADME, organism-based; conditions: in vivo
[29] = Clearance in Balb-C mouse at 2 mg/kg, iv administered as bolus dose by LC-MS method; format: ADME, organism-based; conditions: in vivo
[30] = Volume of distribution in Balb-C mouse at 2 mg/kg, iv administered as bolus dose by LC-MS method; format: ADME, organism-based; conditions: in vivo
[31] = Terminal elimination rate constant in Balb-C mouse at 2 mg/kg, iv administered as bolus dose by LC-MS method; format: ADME, organism-based; conditions: in vivo, read-out: LZ (converted)
[32] = AUC (0 to t) in Balb-C mouse at 2 mg/kg, iv administered as bolus dose by LC-MS method; format: ADME, organism-based; conditions: in vivo
Mus musculus [33] = test: Toxicity in Balb-C mouse assessed as abnormal behavior at 0.1 to 1 mg/kg, ip measured after 30 mins; format: organism-based; conditions: in vivo, 0.5 h
Mus musculus [34] = test: Toxicity in Balb-C mouse assessed as psychological changes at 0.1 to 1 mg/kg, ip measured after 48 hrs; format: organism-based; conditions: in vivo
[35] = Solubility of the compound in 8% ethanol/8% polysorbate80/84% saline formulation; format: physicochemical; conditions: buffer
[36] = Cmax in Balb-C mouse at 1 mg/kg, iv administered as bolus dose by LC-MS method; format: ADME, organism-based; design: dose 1 mg/kg, route intravenous; conditions: in vivo
[37] = Tmax in Balb-C mouse at 1 mg/kg, iv administered as bolus dose by LC-MS method; format: ADME, organism-based; conditions: in vivo
Rattus norvegicus = test: Intrinsic clearance in iv dosed rat; format: ADME, organism-based; conditions: in vivo
[38] = Half life in iv dosed rat; format: ADME, organism-based; conditions: in vivo

half-life [1]: 84 min
Compound: c1cnc2cc3c(cc2n1)[C@@H]1CNC[C@H]3C1 [VARENICLINE]

IC50 (P2X purinoceptor 7 [2]): 214 nM
Compound: N#C/N=C(\NCC12CC3CC(CC(C3)C1)C2)Nc1cccnc1

IC50 (P2X purinoceptor 7 [2]): 447 nM | IC50 (P2X purinoceptor 7 [3]): 389 nM | Ratio IC50 [4]: 1.2
Compound: N#C/N=C(/NCc1ccncc1)NCC12CC3CC(CC(C3)C1)C2

IC50 (P2X purinoceptor 7 [2]): > 10000 nM
Compound: N#C/N=C(/NCCc1ccccc1)NC12CC3CC(CC(C3)C1)C2

IC50 (P2X purinoceptor 7 [2]): 501 nM
Compound: N#C/N=C(/NCc1ccccc1F)NCC12CC3CC(CC(C3)C1)C2

IC50 (P2X purinoceptor 7 [2]): 708 nM | IC50 (P2X purinoceptor 7 [3]): 132 nM | Ratio IC50 [4]: 5.4
Compound: N#C/N=C(/NCc1cccc(F)c1)NCC12CC3CC(CC(C3)C1)C2

IC50 (P2X purinoceptor 7 [2]): 69 nM | IC50 (P2X purinoceptor 7 [3]): 40 nM | Ratio IC50 [4]: 1.7 | concentration at 348 s [7]: 523 ng/mL | concentration at 0.1 h [8]: 766 ng/mL | concentration at 2.5 min [9]: 1180 ng/mL | concentration at 132 s [10]: 687 ng/mL | concentration at 10 min [11]: 365 ng/mL | concentration at 0.168333 h [12]: 332 ng/mL | concentration at 0.25 h [13]: 461 ng/mL | concentration at 23 min [14]: 220 ng/mL | concentration at 37 min [15]: 123 ng/mL | concentration at 0.65 h [16]: 160 ng/mL | concentration at 58 min [17]: 52 ng/mL | concentration at 1.05 h [18]: 31 ng/mL | concentration at 76 min [19]: 12 ng/mL | concentration at 0.35 h [20]: 44 ng/mL | concentration at 0.5 h [21]: 39 ng/mL | concentration at 0.55 h [22]: 23 ng/mL | concentration at 62 min [23]: 5.8 ng/mL | Cmax [24]: 3650 nM | Tmax [25]: 2.5 min | half-life [26]: 13.2 min | AUC(0-inf) [27]: 0.88 µM·h | MRT inf [28]: 18.6 min | clearance [29]: 117 mL/min/kg | Vd [30]: 2.2 L/kg | k el [31]: 0.000886 s⁻¹ | AUC(0-t) [32]: 0.87 µM·h | solubility [35]: Insoluble | Cmax [36]: 912 nM | Tmax [37]: 20 to 30 min
Compound: N#C/N=C(/NCc1cccnc1)NCC12CC3CC(CC(C3)C1)C2
Activity (Mus musculus [5]): Non-Toxic | Activity (Mus musculus [6]): Active | Activity (Mus musculus [33]): Non-Toxic | Activity (Mus musculus [34]): Non-Toxic

IC50 (P2X purinoceptor 7 [2]): > 10000 nM
Compound: N#C/N=C(\NCC12CC3CC(CC(C3)C1)C2)Nc1ccccn1

CL (Rattus norvegicus): 47 mL/min/kg | half-life [38]: 60 min
Compound: O=C(CC12CC3CC(CC(C3)C1)C2)Nc1ccc2[nH]ncc2c1

IC50 (P2X purinoceptor 7 [2]): 4070 nM
Compound: N#C/N=C(/NCCc1ccccc1)NCC12CC3CC(CC(C3)C1)C2

IC50 (P2X purinoceptor 7 [2]): 58 nM
Compound: N#C/N=C(\NCC12CC3CC(CC(C3)C1)C2)Nc1ccccc1F

IC50 (P2X purinoceptor 7 [2]): 851 nM
Compound: COc1cccc(CN/C(=N/C#N)NCC23CC4CC(CC(C4)C2)C3)c1

IC50 (P2X purinoceptor 7 [2]): > 10000 nM
Compound: COc1ccc(CN/C(=N/C#N)NCC23CC4CC(CC(C4)C2)C3)cc1

IC50 (P2X purinoceptor 7 [2]): 562 nM
Compound: COc1ccc(N/C(=N/C#N)NCC23CC4CC(CC(C4)C2)C3)cc1

IC50 (P2X purinoceptor 7 [2]): 186 nM
Compound: N#C/N=C(\NCC12CC3CC(CC(C3)C1)C2)Nc1cccc(F)c1
